Values of other authors in patent US20110151028A1, “Topical vaginal preparation” (priority 2009, published 2011).

Conditions: carrier: standard hydrophilic transdermal carrier, propylene glycol

SMILES: CC[C@H]1OC(=O)[C@H](C)[C@@H](O[C@H]2C[C@@](C)(OC)[C@@H](O)[C@H](C)O2)[C@H](C)[C@@H](O[C@@H]2O[C@H](C)C[C@H](N(C)C)[C@H]2O)[C@](C)(O)C[C@@H](C)C(=O)[C@H](C)[C@@H](O)[C@]1(C)O [erythromycin]
- systemic absorption of transdermally delivered erythromycin: rapid systemic absorption
